{"source": "paper PMC7143940", "about": "“Enhancing the Immune Response of a Nicotine Vaccine with Synthetic Small “Non-Natural” Peptides” (Molecules, 2020)", "test": "Peptide stability in human plasma (RP-HPLC)", "format": "in vitro ADME", "settings": "human plasma (EDTA blood, healthy volunteers), 37 °C, various time points, RP-HPLC with 0.1% trifluoroacetic acid, absorbance at 210 nm, average ± SEM of three separate experiments; result in words", "protocol": "Figure 1 Peptide stability in plasma. Pentapeptide 1 was incubated in human plasma at 37 °C. Levels of the peptide remaining after various time points were analyzed by RP-HPLC in the presence of 0.1% trifluoroacetic acid and detected by absorbance at 210 nm. Peptide amounts were calculated relative to quantities determined at time point zero, and data shown are the average ± SEM of three separate experiments.\nBlood was collected from healthy volunteers in EDTA blood collection tubes (BD Vacutainer, Mississauga, ON, Canada). Plasma was collected after centrifugation at 900× g and 20 °C for 10 min with decreased deceleration, aliquoted, and stored at −80 °C. All subjects gave their informed consent for inclusion before they participated in the study. The study was conducted in accordance with the Declaration of Helsinki, with all protocols approved by the Research Ethics Board at Health Sciences North Research Institute (Protocol # 18-061).\nThe stability of pentapeptide 1 in human plasma was analyzed using previously published methods.", "note": "“Also recorded” adds a separate entry of the source. Where a SMILES comes first, the peptide text is derived from it.", "data": [{"smiles": "NCCCC[C@H](N)C(=O)N[C@@H](Cc1c[nH]c2ccccc12)C(=O)N[C@@H](CS)C(=O)N[C@@H](CCC(=O)O)C(=O)N[C@@H](CS)C(=O)O", "note": "[Peptide 1, KWCEC] (H-KWCEC-OH)", "values": [{"measurement": "Plasma stability: peptide remaining relative to time point zero", "value": "No statistical difference was found between the two time points; also recorded: not recognized and cleaved by proteolytic enzymes"}]}]}
